Each structure is given as a SMILES string.

The first assay addresses T1, h FPR2 (Homo sapiens, UniProt P25090).
T1 construct: expressed in transfected cells
T1 sequence (P25090 1-351): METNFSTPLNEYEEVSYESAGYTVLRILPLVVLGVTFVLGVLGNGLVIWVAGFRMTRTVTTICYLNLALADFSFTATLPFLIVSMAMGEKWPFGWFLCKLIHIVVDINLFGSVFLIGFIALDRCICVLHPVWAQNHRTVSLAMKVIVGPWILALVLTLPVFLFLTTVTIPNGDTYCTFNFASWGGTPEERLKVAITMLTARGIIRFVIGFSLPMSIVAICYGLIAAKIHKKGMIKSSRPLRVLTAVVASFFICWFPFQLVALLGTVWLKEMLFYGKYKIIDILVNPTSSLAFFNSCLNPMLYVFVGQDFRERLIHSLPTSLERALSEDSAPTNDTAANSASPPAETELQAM
As to the kind of experiment: Agonistic activity in hFPR2-Aq-CHO cells (FLIPR Calcium 5 fluorescence assay). It counts as cell-based. Conditions: 11 point half log dilution, final assay concentration from 10µM. The procedure, abridged: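 EC50 reflects the compound-evoked rise in Calcium 5 fluorescence over basal, recorded for 5 min on FLIPR and compared with no-compound wells. Dye-loaded hFPR2-Aq-CHO cells received half-log dilutions from 10 µM to 100 pM final in pH 7.4 HBSS buffer.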
For the compound `COc1ccc([C@@H]2CN(C(=O)C3COC3)CC[C@H]2NC(=O)Nc2ccc(Cl)cc2)nc1` (relative stereo) [Ex-92, trans-1-(4-chloro-phenyl)-3-[5-methoxy-1'-(oxetane-3-carbonyl)-1',2',3',4',5',6'-hexahydro-[2,3']bipyridinyl-4'-yl]-urea], the EC50 amounted to 4 nM.

`O=C(Nc1ccc(Cl)cc1)N[C@@H]1CCN(Cc2ccc(C3CC3)nc2)C[C@H]1c1ccc(Cl)s1` (relative stereo) [Ex-73, trans-1-(4-chlorophenyl)-3-[3-(5-chlorothiophen-2-yl)-1-[(6-cyclopropylpyridin-3-yl)methyl]piperidin-4-yl]urea]: the concentration for a half-maximal effect (EC50) came to 4 nM. As for `COc1ccc([C@@H]2CN(CCC(N)=O)CC[C@H]2NC(=O)Nc2ccc(Cl)cc2)nc1` (relative stereo) [Ex-142, trans-3-[4-[[(4-Chlorophenyl)-carbamoyl]amino]-3-(5-methoxy-pyridin-2-yl)-piperidin-1-yl]-propionamide], the EC50 amounted to 1.1 nM.

For `COc1ccc([C@@H]2CN(c3ccncn3)CC[C@H]2NC(=O)Nc2cc(C)ns2)nc1` (relative stereo) [Ex-8, trans-1-(5-methoxy-1'-pyrimidin-4-yl-1',2',3',4',5',6'-hexahydro-[2,3']bipyridinyl-4'-yl)-3-(3-methyl-isothiazol-5-yl)-urea], the concentration for a half-maximal effect (EC50) is 1 nM. Still for that read-out and setting: to `COc1cnc([C@@H]2CN(CCO)CC[C@H]2NC(=O)Nc2ccc(Cl)cc2)c(F)c1` (relative stereo) [Ex-199, trans-1-(4-chloro-phenyl)-3-[3-fluoro-1'-(2-hydroxy-ethyl)-5-methoxy-1',2',3',4',5',6'-hexahydro-[2,3']bipyridinyl-4'-yl]-urea] belongs 0.5 nM; to `CS(=O)(=O)n1ccc(CN2CC[C@@H](NC(=O)Nc3ccccc3)[C@H](c3ccc(Cl)cn3)C2)n1` (relative stereo) [Ex-184, trans-1-[5-chloro-1'-(1-methanesulfonyl-1H-pyrazol-3-ylmethyl)-1',2',3',4',5',6'-hexahydro-[2,3']bipyridinyl-4'-yl]-3-phenyl-urea], 1.4 nM; to `Cc1cnc(N2CC[C@@H](NC(=O)Nc3cc(C)ns3)[C@H](c3ccc(Cl)cn3)C2)cn1` (relative stereo) [Ex-41, trans-1-[5-chloro-1'-(5-methyl-pyrazin-2-yl)-1',2',3',4',5',6'-hexahydro-[2,3']bipyridinyl-4'-yl]-3-(3-methyl-isothiazol-5-yl)-urea], 3 nM. As to `COc1ccc([C@@H]2CN(Cc3cnn(C)c3)CC[C@H]2NC(=O)Nc2ccc(C#N)cc2)nc1` (relative stereo) [Ex-146, trans-1-(4-Cyano-phenyl)-3-[3-(5-methoxy-pyridin-2-yl)-1-[(1-methyl-1H-pyrazol-4-yl)-methyl]-piperidin-4-yl]-urea], the EC50 was determined as 2 nM. Regarding `COc1ccc([C@H]2CN(CC(=O)N(C)C)CC[C@@H]2NC(=O)Nc2ccc(Cl)cc2)nc1` [Ex-216], the EC50 was 2 nM. For the compound `COc1ccc([C@@H]2CN(C(=O)c3cnccc3C(F)(F)F)CC[C@H]2NC(=O)Nc2ccc(Cl)cc2)nc1` (single isomer, unassigned) [Ex-99, trans-1-(4-chlorophenyl)-3-[3-(5-methoxypyridin-2-yl)-1-{[4-(trifluoromethyl)pyridin-3-yl]carbonyl}piperidin-4-yl]urea], the concentration for a half-maximal effect (EC50) was 0.4 nM. Same read-out and setting: the value for `COc1ccc([C@@H]2CN(CC(F)F)CC[C@H]2NC(=O)Nc2ccc(C#N)cc2)nc1` (single isomer, unassigned) [Ex-174, trans-1-(4-Cyano-phenyl)-3-[1-(2,2-difluoro-ethyl)-3-(5-methoxy-pyridin-2-yl)-piperidin-4-yl]-urea] was 1.4 nM; that for `O=C(Nc1ccc(Cl)cc1)N[C@@H]1CCN(c2ccncn2)C[C@H]1c1ccc(Cl)cn1` (relative stereo) [Ex-9, trans-1-(4-chloro-phenyl)-3-(5-chloro-1'-pyrimidin-4-yl-1',2',3',4',5',6'-hexahydro-[2,3']bipyridinyl-4'-yl)-urea] was 2 nM. Same read-out and setting: to `COc1cnc([C@@H]2CN(CC3COC3)CC[C@H]2NC(=O)Nc2ccc(Cl)cc2)c(F)c1` (relative stereo) [Ex-200, trans-1-(4-chloro-phenyl)-3-(3-fluoro-5-methoxy-1'-oxetan-3-ylmethyl-1',2',3',4',5',6'-hexahydro-[2,3']bipyridinyl-4'-yl)-urea] belongs 0.4 nM. On the same count and under the same terms, to `COCCCN1CC[C@@H](NC(=O)Nc2ccccc2)[C@H](c2ccc(OC)cn2)C1` (relative stereo) [Ex-158, trans-1-[1-(3-Methoxy-propyl)-3-(5-methoxy-pyridin-2-yl)-piperidin-4-yl]-3-phenyl-urea] belongs 31 nM; to `COc1ccc([C@@H]2CN(CC3CCOCC3)CC[C@H]2NC(=O)Nc2ccc(Cl)cc2)nc1` (single isomer, unassigned) [Ex-51, trans-1-(4-chlorophenyl)-3-[3-(5-methoxypyridin-2-yl)-1-(oxan-4-ylmethyl)piperidin-4-yl]urea], 0.4 nM; to `COc1ccc([C@@H]2CN(C(=O)CO)CC[C@H]2NC(=O)Nc2cc(C)ns2)nc1` (relative stereo) [Ex-123, trans-1-[1-(2-Hydroxy-acetyl)-3-(5-methoxy-pyridin-2-yl)-piperidin-4-yl]-3-(3-methyl-isothiazol-5-yl)-urea], 18 nM. In the case of `COc1ccc([C@@H]2CN(C(=O)c3ccc(C(F)(F)F)nc3)CC[C@H]2NC(=O)Nc2ccc(C#N)cc2)nc1` (relative stereo) [Ex-141, trans-1-(4-Cyano-phenyl)-3-[3-(5-methoxy-pyridin-2-yl)-1-[6-(trifluoromethyl)-pyridine-3-carbonyl]-piperidin-4-yl]-urea], the EC50 stood at 1.2 nM. On the same count and under the same terms, to `COc1ccc([C@@H]2CN(CCCN(C)C)CC[C@H]2NC(=O)Nc2ccc(Cl)cc2)nc1` (relative stereo) [Ex-111, trans-1-(4-chloro-phenyl)-3-[1'-(3-dimethylaminopropyl)-5-methoxy-1',2',3',4',5',6'-hexahydro-[2,3']bipyridinyl-4'-yl]-urea] belongs 0.2 nM; to `COc1ccc([C@@H]2CN(Cc3cc(C(F)(F)F)on3)CC[C@H]2NC(=O)Nc2ccc(Cl)cc2)nc1` (single isomer, unassigned) [Ex-38, trans-1-(4-chlorophenyl)-3-[3-(5-methoxypyridin-2-yl)-1-{[5-(trifluoromethyl)-1,2-oxazol-3-yl]methyl}piperidin-4-yl]urea], 54 nM. With `COCCCN1CC[C@@H](NC(=O)Nc2ccc(Cl)cc2)[C@H](c2ccc(Cl)s2)C1` (relative stereo) [Ex-91, trans-1-(4-chloro-phenyl)-3-[3-(5-chloro-thiophen-2-yl)-1-(3-methoxy-propyl)-piperidin-4-yl]-urea], the 50% effective concentration (EC50) was determined as 11 nM. Same read-out and setting: to `COc1ccc([C@@H]2CN(CC(N)=O)CC[C@H]2NC(=O)Nc2ccc(Cl)cc2)nc1` (relative stereo) [Ex-129, trans-2-[4-[[(4-Chlorophenyl)-carbamoyl]amino]-3-(5-methoxy-pyridin-2-yl)-piperidin-1-yl]-acetamide] belongs 0.3 nM; to `COc1ccc([C@@H]2CN(CCCO)CC[C@H]2NC(=O)Nc2ccccc2)nc1` (relative stereo) [Ex-159, trans-1-[1-(3-Hydroxy-propyl)-3-(5-methoxy-pyridin-2-yl)-piperidin-4-yl]-3-phenyl-urea], 57 nM.

On to `COc1ccc([C@@H]2CN(Cc3cnc(C)nc3)CC[C@H]2NC(=O)Nc2ccc(Cl)cc2)nc1` (relative stereo) [Ex-61, trans-1-(4-chlorophenyl)-3-[3-(5-methoxy-2-pyridyl)-1-[(2-methylpyrimidin-5-yl)methyl]-4-piperidyl]urea], for which the EC50 worked out at 0.6 nM.

For `COCCCN1CC[C@@H](NC(=O)Nc2ccc(Cl)cc2)[C@H](c2ccc(OC)cn2)C1` (single isomer, unassigned) [Ex-192, trans-1-(4-chlorophenyl)-3-[1-(3-methoxypropyl)-3-(5-methoxypyridin-2-yl)piperidin-4-yl]urea], the EC50 was found to be 58 nM. The same measure, in the same setting: to `Cc1cc(NC(=O)N[C@@H]2CCN(Cc3ncccn3)C[C@H]2c2ccc(Cl)s2)sn1` (single isomer, unassigned) [Ex-62, trans-1-[3-(5-chlorothiophen-2-yl)-1-(pyrimidin-2-ylmethyl)piperidin-4-yl]-3-(3-methyl-1,2-thiazol-5-yl)urea] belongs 0.2 nM.

The assay is the same for the next values; noted with them: agonistic response at 0.1µM.
Regarding `Cc1cc(CN2CC[C@@H](NC(=O)Nc3ccc(Cl)cc3)[C@H](c3ccc(Cl)cn3)C2)no1` (relative stereo) [Ex-23, trans-1-(4-chlorophenyl)-3-[3-(5-chloropyridin-2-yl)-1-[(5-methyl-1,2-oxazol-3-yl)methyl]piperidin-4-yl]urea], the activation at 0.1 µM came to 28%. On the same count and under the same terms, the value for `COc1ccc([C@@H]2CN(C(=O)CN(C)C)CC[C@H]2NC(=O)Nc2ccc(Cl)cc2)nc1` (relative stereo) [Ex-190, trans-1-(4-chlorophenyl)-3-[1-[2-(dimethylamino)acetyl]-3-(5-methoxypyridin-2-yl)piperidin-4-yl]urea] was 8%; that for `COc1ccc([C@@H]2CN(Cc3ccn(C)n3)CC[C@H]2NC(=O)Nc2ccc(Cl)cc2)nc1` (relative stereo) [Ex-40, trans-1-(4-chlorophenyl)-3-[3-(5-methoxypyridin-2-yl)-1-[(1-methyl-1H-pyrazol-3-yl)methyl]piperidin-4-yl]urea] was 10%.

What is called EC50 is the midpoint of the concentration-response curve.
